Source: EP4205737A1, “COMPOSITION FOR PREVENTION, AMELIORATION, OR TREATMENT OF INFLAMMATORY DISEASES OR IMMUNE DISEASES COMPRISING GANCAONIN N AS ACTIVE INGREDIENT” (UNIVERSITY-INDUSTRY COOPERATION GROUP OF KYUNG HEE …, priority 2020, dated 2022)

Key:
A549 cells = assay: Cell viability analysis (MTT), A549 cells; type: cell-based, human; details: A549 cells, 5, 10, 20, 40 µM, 24 hours, compared to the control group (FIG. 1B)
Description: RAW264.7 murine macrophage cells were purchased from Korean Cell Line Bank (in Seoul, South Korea). A549 human alveolar basal epithelial cells were purchased from American Type Culture Collection (in ATCC, MD, USA). The cells were cultured in DMEM medium (manufactured by Corning Inc., NY, USA) containing 10% FBS (manufactured by Gibco, NY, USA) and 1X antibiotic-antimycotic solution (manufactured by ABAM, Corning Inc., NY, USA) under conditions of 37°C and 5% CO2.
To evaluate the cytotoxicity of gancaonin N, RAW264.7 cells and A549 cells were dispensed into 96-well plates (1 × 10^4 cells/well) and cultured under conditions of 37°C and 5% CO2. After the culturing, the cells were treated with gancaonin N at concentrations of 5, 10, 20, or 40 µM for 24 hours, and MTT solution (5 mg/mL) was added to each well. After adding 100 µL of dimethyl sulfoxide (DMSO, manufactured by Sigma-Aldrich, St. Louis, MO, USA), the absorbance was measured at 540 nm using a microplate reader (manufactured by Bio-Rad Hercules, CA, USA).
To examine the cytotoxicity of gancaonin N, the inventors treated Raw264.7 cells and A549 cells with gancaonin N according to the methods of Examples 1 to 4 and then measured cell viability.

TNF-α [1] = assay: Real-time PCR of TNF-α mRNA in LPS-stimulated A549 cells; type: cell-based, human; details: LPS 5 ug/mL, 5 to 40 µM, 24 hours, effect proportional to amount (FIG. 3A)
Description: (§1) A549 cells were dispensed into 6-well plates (1 × 10^6 cells/well) and cultured under conditions of 37°C and 5% CO2. After the culturing, the A549 cells were treated with of 5 ug/mL of lipopolysaccharide (LPS) and with 5 µM to 40 µM of gancaonin N, and the cells were then cultured for 24 hours. Afterwards, total RNA was isolated from each treated cell using Hybrid-RTM (GeneAll, South Korea). The isolated total RNA (500 ng) was converted to cDNA sequentially through incubation at 55°C for 60 minutes using oligo (dT) and incubation at 85°C for 5 minutes, and the cDNA was stored at 4°C until being used. In addition, real-time quantitative PCR was performed using Universal SYBR Green Master Mix (Applied Biosystems, USA), and the cDNA was amplified under conditions described below. 95°C for 15 minutes, then 95°C for 30 seconds, 59°C for 30 seconds, and 72°C for 30 seconds were repeated 40 times. […]
(§2) To investigate the inhibitory effect of gancaonin on the expression levels of pro-inflammatory cytokines, the mRNA expression levels of tumor necrosis factor-α (hereinafter referred to as TNF-α), interleukin-1 beta (hereinafter referred to as IL-1β), and interleukin 6 (hereinafter referred to as IL-6) which are all known as pro-inflammatory cytokines were measured. […]

IL-6 = assay: Real-time PCR of IL-6 mRNA in LPS-stimulated A549 cells; type: cell-based, human; details: LPS 5 ug/mL, 5 to 40 µM, 24 hours, effect proportional to amount (FIG. 3C)
Description: as §1, §2

[2] = system: extracellular signal-regulated kinase (ERK); assay: MAPK/NF-κB signaling pathway: ERK in LPS-stimulated A549 cells; type: cell-based, human
Description: RAW264.7 cells and A549 cells were dispensed into 6-well plates (1 × 10^6 cells/well) and cultured under conditions of 37°C and 5% CO2. After the culturing, the Raw 264.7 cells were treated with 1 µg/mL of lipopolysaccharide (LPS) and the A549 cells were treated with 5 µg/mL of lipopolysaccharide (LPS) and with 5 µM to 40 µM of gancaonin N, and the cells were cultured for 24 hours or 6 hours. Then, the cells were lysed using a lysis buffer. In addition, the left lung extracted from each mouse was lysed using RIPA buffer. SDS-PAGE electrophoresis was performed on the cell and tissue lysates to separate proteins by side, and 5% bovine serum albumin was used for culturing and for blocking antibodies against PGE2 (1:500), IL-1β (1:500), IL-6 (1:500), TNF-α (1:500), i-NOS (1:500), COX-2 (1:1000), P-ERK1/2 (1:1000), ERK1/2 (1:3000), P-p38 (1:1000), p38 (1:3000), NF-κB p65 (1:1000), Lamin B1 (1:1000), and β-actin (1: 5,000).
To identify through which pathway the anti-inflammatory response occurs, the role of gancaonin N in the MAPK/NF-κB signaling pathway was investigated. […]

IL-1β = assay: Western blotting of IL-1β in lung of LPS-induced acute lung injury mouse model; type: in vivo, BALB/c mice; details: mice, 10 mg/kg or 30 mg/kg intraperitoneally, LPS-induced ALI, Western blotting (FIG. 8)
Description: (§3) 25 6-week-old female BALB/c mice having a weight of 18g to 20 g were purchased from BioLink (DBL CO., Eumseong, Chungcheongbuk-do, Korea), and reared in the animal laboratory of KyungHee University. To establish an LPS-induced acute lung injury model, all the mice were divided into five groups each group of which consisted of 5 mice, and the five groups were referred to as control, vehicle (only LPS treatment), gancaonin N (10 mg/kg), gancaonin N (30 mg/kg), and dexamethasone (3 mg/kg). Gancaonin N was intraperitoneally injected at a dose of 10 mg/kg or 30 mg/kg, and dexamethasone was intraperitoneally injected at a dose of 3 mg/kg as a positive control group. In addition, the control and vehicle groups were intraperitoneally injected with 4% DMSO in which gancaonin N was dissolved. Then, 10 µg/50 µL of LPS was intratracheally administered to the mice except for the control group one hour later (the control group mice were administered 50 µL of PBS), and the mice were sacrificed 12 hours later.
(§4) RAW264.7 cells and A549 cells were dispensed into 6-well plates (1 × 10^6 cells/well) and cultured under conditions of 37°C and 5% CO2. […]
(§5) To specifically investigate whether gancaonin N can inhibit pro-inflammatory factors in a mouse model, the protein expression levels of COX-2, IL-1β, and TNF-α were measured by Western blotting as described in Examples 1 to 6 above.

TNF-α [3] = assay: Western blotting of TNF-α in lung of LPS-induced acute lung injury mouse model; type: in vivo, BALB/c mice; details: mice, 10 mg/kg or 30 mg/kg intraperitoneally, LPS-induced ALI, Western blotting (FIG. 8)
Description: as §3, §4, §5

`COc1ccc(-c2coc3cc(O)c(CC=C(C)C)c(O)c3c2=O)c(O)c1` [gancaonin N, 5,7-dihydroxy-3-(2-hydroxy-4-methoxyphenyl)-6-(3-methylbut-2-enyl)chromen-4-one] was tested. Which cell viability (A549 cells) did it give?
The cell viability was “did not decrease”.

What about the “mRNA expression of TNF-α” value (TNF-α [1]) of the same molecule?
The value was “significantly inhibited”.

What about the “mRNA expression of IL-6” value (IL-6) of the same molecule?
The value was “significantly inhibited”.

What about the “activity/protein expression levels of ERK” value ([2]; 5µM to 40 µM 2 hours before LPS treatment (FIG. 5A)) of the same molecule?
The value was “significantly reduced”.

And the “amount of gancaonin N at which the inhibitory effect on the activity/protein expression levels of ERK was most excellent” value ([2]; LPS, tested 5µM to 40 µM)?
The value was 40 µM.

And the “protein expression level of IL-1β in lung” value (IL-1β)?
The value was “significantly reduced”.

And the “protein expression level of TNF-α in lung” value (TNF-α [3])?
Its value is “significantly reduced”.
